The results in this text go back to patent US12564638B2 (SHANGHAITECH UNIVERSITY, priority 2019, dated 2026).

Format in all cases: cell-based
Test [1] concerns HCC827 cells (EGFR Exon19 del, non-small cell lung cancer cells). Put plainly: Cell viability assay (WST/CCK8), HCC827 cells. The following applies: Homo sapiens, HCC827, 72 h, 72 hours, read-out: IC50 (half inhibitory concentration). The method, boiled down:
(§1)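 Cells seeded at 3 000/well in RPMI1640 complete medium, dosed next day with compounds (top 10 μM, 3-fold, 10 points) for 72 h. Viability read with WST (CCK8) reagent; DMSO as negative control, EGFR TKIs as positive controls; IC50 determined.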

In test [2] the test system is PC9 cells (EGFR Exon 19 del, non-small cell lung cancer cells). Nature of the test: Cell viability assay (WST/CCK8), PC9 cells. The following applies: Homo sapiens, PC-9, 72 hours, read-out: IC50 (half inhibitory concentration). Summed up: as §1
Test [3] concerns H1975 (EGFR T790M+L858R mutation, non-small cell lung cancer cell line). Nature of the test: Cell viability assay (WST/CCK8), H1975 cells. The conditions noted are these: Homo sapiens, NCI-H1975, read-out: IC50 (half inhibitory concentration). The source says:
(§2) The cell lines with abnormal EGFR expression used are as follows: • HCC827 cells (EGFR Exon19 del, non-small cell lung cancer cells); • PC9 cells (EGFR Exon 19 del, non-small cell lung cancer cells); • PC9BracA1 (EGFR Exon 19 del+T790M, non-small cell lung cancer cells) • H1975 (EGFR Exon T790M+L858R mutation, non-small cell lung cancer cell line) • BT474 cells (HER2 positive breast cancer cells)
(§3) All of the half inhibitory concentrations (IC50) of these compounds of the present invention were determined with WST reagent from Fuyuan Biotec Company. The specific experiment procedures are as follows: Cancer cells were planted in 96-well-plate at the density of 3 000 cells per well with 100 μL RPMI1640 completed culture medium. In the next day, compounds with indicated concentrations were added to the cells, DMSO was used as the negative control and the EGFR TKIs were used to treat cells as the positive groups. After 72 hours drug treatment, cell viability was measured by using the WST reagent following the instructions.

Test [4] has as its system BT474 cells (HER2 positive breast cancer cells). Put plainly: Cell viability assay (CCK8), BT474 cells. The following applies: Homo sapiens, BT-474, Table 10, BT474, 72 hours, read-out: IC50 (half inhibitory concentration).
From the text: as §2
as §3, with “instructions. The growth inhibition curve of the compounds on cells were plotted by Prism GraphPad, and the compounds IC50 calculated from it.” for “instructions.”
The cell viability assays were taken to determine the anti-tumor activity of these indicated compounds in BT474 cells, which can overexpress HER2 protein. The cells were treated with the gradient concentration of these compounds (the maximum concentration: 10 μM; 3-fold dilution ratio, 10 concentration gradients) for 72 hours and then incubated with the CCK8 reagent to determine the cell viability.

In test [5] the test system is PC9BracA1 (EGFR Exon 19 del+T790M, non-small cell lung cancer cells). Put plainly: Cell viability assay (WST/CCK8), PC9Brac1 cells. The following applies: Table 8, osimertinib-based compounds; Pc9Brc1; 72 hours; WST; read-out: IC50 (half inhibitory concentration).
From the text: as §2, §3

[6] abbreviates: HCC827 (Exon19 Del), WST (CCK8).
Setting [7] is: H1975 (L858R + T790M), 72 hours, WST.
[8] abbreviates: Table 8, osimertinib-based compounds, HCC827, WST.
[9] abbreviates: Table 8, osimertinib-based compounds, H1975, 72 hours, WST.

Where two headings read alike, the source gives them in different places.

Consider `COc1cc2ncnc(Nc3ccc(F)c(Cl)c3)c2cc1NC(=O)/C=C/CN1CCC(NC(=O)CNc2cccc3c2C(=O)N(C2CCC(=O)NC2=O)C3=O)CC1` (stereo not shown) [SIAIS249081, (E)-N-(4-((3-chloro-4-fluorophenyl)amino)-7-methoxyquinazolin-6-yl)-4-(4-(2-((2-(2,6-dioxopiperidin-3-yl)-1,3-dioxoisoindolin-4-yl)amino)acetamido)piperidin-1-yl)but-2-enamide], for which the IC50 was 12 nM in test [1] (setting [6]); 32.6 nM in test [2] (PC9 (Exon19 Del), WST (CCK8)); 114 nM in test [3] (setting [7]).
`COc1cc2ncnc(Nc3ccc(F)c(Cl)c3)c2cc1NC(=O)/C=C/CN1CCC(N2CCN(C(=O)CSc3cccc4c3CN(C3CCC(=O)NC3=O)C4=O)CC2)CC1` (stereo not shown) [SIAIS262034, (E)-N-(4-((3-chloro-4-fluorophenyl)amino)-7-methoxyquinazolin-6-yl)-4-(4-(4-(2-((2-(2,6-dioxopiperidin-3-yl)-1-oxoisoindolin-4-yl)thio)acetyl)piperazin-1-yl)piperidin-1-yl)but-2-enamide]: the IC50 in test [1] (setting [6]) came out at 3.6 nM; in test [2] (PC9 (Exon19 Del), WST (CCK8)), 11.3 nM; in test [3] (setting [7]), 828 nM.
Turning to `C=CC(=O)Nc1cc2c(Nc3ccc(F)c(Cl)c3)ncnc2cc1OCCCN1CCC(N2CCN(C(=O)CCCCSc3cccc4c3CN(C3CCC(=O)NC3=O)C4=O)CC2)CC1` (stereo not shown) [SIAIS262175, N-(4-((3-chloro-4-fluorophenyl)amino)-7-(3-(4-(4-(5-((2-(2,6-dioxopiperidin-3-yl)-1-oxoisoindolin-4-yl)thio)pentanoyl)piperazin-1-yl)piperidin-1-yl)propoxy)quinazolin-6-yl)acrylamide], the IC50 was 6.7 nM in test [1] (Table 6, canertinib-based compounds, HCC827 (Exon19 Del), WST); 17 nM in test [2] (Table 6, canertinib-based compounds, PC9 (Exon19 Del), WST); 22.5 nM in test [4]; 430 nM in test [3] (Table 7, canertinib-based compounds, H1975 (L858R + T790M)).
As for `C=CC(=O)Nc1cc(Nc2nccc(-c3cn(C)c4ccccc34)n2)c(OC)cc1N(C)CCN(C)C(=O)CCCCCSc1cccc2c1CN(C1CCC(=O)NC1=O)C2=O` (stereo not shown) [SIAIS337056, N-(2-((2-acrylamido-5-methoxy-4-((4-(1-methyl-1H-indol-3-yl)pyrimidin-2-yl)amino)phenyl)(methyl)amino)ethyl)-6-((2-(2,6-dioxopiperidin-3-yl)-1-oxoisoindolin-4-yl)thio)-N-methylhexanamide], the results for the IC50 in test [1] (setting [8]) and in test [5] were 114 nM and 973 nM, respectively.
As for `C=CC(=O)Nc1cc(Nc2nccc(-c3cn(C)c4ccccc34)n2)c(OC)cc1N(C)CCN(C)C(=O)CCCCCCSc1cccc2c1CN(C1CCC(=O)NC1=O)C2=O` (stereo not shown) [SIAIS337057, N-(2-((2-acrylamido-5-methoxy-4-((4-(1-methyl-1H-indol-3-yl)pyrimidin-2-yl)amino)phenyl)(methyl)amino)ethyl)-7-((2-(2,6-dioxopiperidin-3-yl)-1-oxoisoindolin-4-yl)thio)-N-methylheptanamide], the values for the IC50 in test [1] (setting [8]) and in test [3] (setting [9]) were 47.7 nM and 21 nM, respectively.
As for `C=CC(=O)Nc1cc(Nc2nccc(-c3cn(C)c4ccccc34)n2)c(OC)cc1N(C)CCN(C)C(=O)CCCCCCCCCSc1cccc2c1CN(C1CCC(=O)NC1=O)C2=O` (stereo not shown) [SIAIS337060, N-(2-((2-acrylamido-5-methoxy-4-((4-(1-methyl-1H-indol-3-yl)pyrimidin-2-yl)amino)phenyl)(methyl)amino)ethyl)-10-((2-(2,6-dioxopiperidin-3-yl)-1-oxoisoindolin-4-yl)thio)-N-methyldecanamide], the IC50 in test [1] (setting [8]) was 122 nM; in test [3] (setting [9]), 171 nM.
`C=CC(=O)Nc1cc(Nc2nccc(-c3cn(C)c4ccccc34)n2)c(OC)cc1N(C)CCN(C)CCCCCCCCSc1cccc2c1CN(C1CCC(=O)NC1=O)C2=O` (stereo not shown) [SIAIS337084, N-(2-((2-((8-((2-(2,6-dioxopiperidin-3-yl)-1-oxoisoindolin-4-yl)thio)octyl)(methyl)amino)ethyl)(methyl)amino)-4-methoxy-5-((4-(1-methyl-1H-indol-3-yl)pyrimidin-2-yl)amino)phenyl)acrylamide]: the IC50 in test [1] (setting [8]) is 353 nM; in test [2] (Table 8, osimertinib-based compounds, PC9, WST), 271 nM; in test [5] it was 686 nM.
